Data reported in ChEMBL document CHEMBL4043122, “Discovery of spiro[indole-3,2'-pyrrolidin]-2(1H)-one based inhibitors targeting Brr2, a core component of the U5 snRNP” (Bioorg Med Chem, 2017).
In brackets after ≈: the same amount, converted by molar mass. Activity calls are given as the source filed them. The calls are words filed in the database; no cut-off is given here.

Assays:
[1] = target: T1, U5 small nuclear ribonucleoprotein 200 kDa helicase (Homo sapiens, UniProt O75643); experiment: Inhibition of full length recombinant human N-terminal His-tagged BRR2 RNA dependent ATPase activity expressed in baculovirus infected Sf9 cells using single stranded poly(U) RNA as substrate after 30 mins by ADP-Glo luminescence assay
T1 sequence (O75643 whole entry): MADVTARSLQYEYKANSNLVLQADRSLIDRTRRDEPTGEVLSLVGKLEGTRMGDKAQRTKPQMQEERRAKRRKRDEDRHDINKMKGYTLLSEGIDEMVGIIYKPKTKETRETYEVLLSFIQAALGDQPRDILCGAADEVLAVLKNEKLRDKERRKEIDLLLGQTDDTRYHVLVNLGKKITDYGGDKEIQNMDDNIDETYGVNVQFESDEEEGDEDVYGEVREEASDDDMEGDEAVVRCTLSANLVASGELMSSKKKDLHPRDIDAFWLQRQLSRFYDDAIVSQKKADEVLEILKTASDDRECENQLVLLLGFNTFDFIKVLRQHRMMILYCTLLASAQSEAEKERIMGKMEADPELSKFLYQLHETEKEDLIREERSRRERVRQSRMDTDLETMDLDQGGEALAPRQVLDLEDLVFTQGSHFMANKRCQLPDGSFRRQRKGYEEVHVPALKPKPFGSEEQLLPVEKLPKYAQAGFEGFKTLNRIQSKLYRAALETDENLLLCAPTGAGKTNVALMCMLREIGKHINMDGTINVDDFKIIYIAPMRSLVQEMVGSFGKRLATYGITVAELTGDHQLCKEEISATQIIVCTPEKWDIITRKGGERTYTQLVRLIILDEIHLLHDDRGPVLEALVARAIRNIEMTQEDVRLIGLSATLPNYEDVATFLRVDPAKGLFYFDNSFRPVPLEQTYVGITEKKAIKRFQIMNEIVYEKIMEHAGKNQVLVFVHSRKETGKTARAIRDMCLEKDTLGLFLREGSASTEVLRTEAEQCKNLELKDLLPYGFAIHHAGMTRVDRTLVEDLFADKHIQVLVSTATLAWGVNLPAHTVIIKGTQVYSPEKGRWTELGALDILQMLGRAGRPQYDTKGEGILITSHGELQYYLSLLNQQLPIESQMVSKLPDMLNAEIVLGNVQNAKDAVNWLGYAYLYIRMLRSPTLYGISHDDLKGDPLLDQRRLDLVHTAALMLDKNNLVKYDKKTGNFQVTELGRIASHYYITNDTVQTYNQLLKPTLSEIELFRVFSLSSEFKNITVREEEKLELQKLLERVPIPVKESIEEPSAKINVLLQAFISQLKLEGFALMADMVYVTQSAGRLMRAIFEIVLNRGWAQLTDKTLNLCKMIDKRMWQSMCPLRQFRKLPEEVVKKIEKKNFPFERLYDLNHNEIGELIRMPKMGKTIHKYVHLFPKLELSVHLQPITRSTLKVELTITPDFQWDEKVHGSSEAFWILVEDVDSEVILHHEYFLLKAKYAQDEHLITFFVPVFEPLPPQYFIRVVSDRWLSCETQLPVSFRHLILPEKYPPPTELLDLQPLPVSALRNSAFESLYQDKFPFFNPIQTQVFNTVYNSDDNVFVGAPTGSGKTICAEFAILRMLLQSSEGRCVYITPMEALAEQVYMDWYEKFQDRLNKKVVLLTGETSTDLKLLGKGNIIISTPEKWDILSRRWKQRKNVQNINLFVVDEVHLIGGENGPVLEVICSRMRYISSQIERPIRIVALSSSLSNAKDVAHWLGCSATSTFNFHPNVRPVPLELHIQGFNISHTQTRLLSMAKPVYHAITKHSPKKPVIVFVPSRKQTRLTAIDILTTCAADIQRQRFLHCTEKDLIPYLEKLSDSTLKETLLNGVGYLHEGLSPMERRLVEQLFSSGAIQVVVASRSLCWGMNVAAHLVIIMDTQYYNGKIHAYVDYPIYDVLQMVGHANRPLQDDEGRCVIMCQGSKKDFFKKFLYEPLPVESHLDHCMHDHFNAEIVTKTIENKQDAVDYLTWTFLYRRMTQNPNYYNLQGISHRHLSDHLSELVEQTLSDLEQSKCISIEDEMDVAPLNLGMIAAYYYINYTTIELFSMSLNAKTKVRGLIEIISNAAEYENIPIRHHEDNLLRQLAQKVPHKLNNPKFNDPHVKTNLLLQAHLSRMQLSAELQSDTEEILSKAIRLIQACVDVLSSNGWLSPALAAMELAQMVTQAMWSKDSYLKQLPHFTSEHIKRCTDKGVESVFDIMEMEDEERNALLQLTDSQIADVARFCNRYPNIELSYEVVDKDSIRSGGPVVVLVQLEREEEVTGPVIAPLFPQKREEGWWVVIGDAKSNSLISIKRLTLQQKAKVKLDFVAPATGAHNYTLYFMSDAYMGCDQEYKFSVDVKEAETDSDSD

[2] = target: T1, U5 small nuclear ribonucleoprotein 200 kDa helicase; experiment: Inhibition of full length recombinant human N-terminal His-tagged BRR2 helicase activity expressed in baculovirus infected Sf9 cells using 5'-[FITC]-UUCCCCUGCAUAAC-3'/5'-GUUAUGCAGGGGAACCAACGCAUAUCAGUGAGGAUU-3' RNA as substrate at 100 uM after 10 mins in presence of ATP by PAGE analysis
[3] = Solubility of the compound at pH 6.8; type: physicochemical; details: buffer
[4] = Permeability of the compound at pH 7.4 by PAMPA; type: physicochemical; details: read-out: permeability
[5] = target: Eukaryotic initiation factor 4A-I (Homo sapiens, UniProt P60842); experiment: Inhibition of elF4G-induced full length recombinant human N-terminal His6-SUMO-tagged eIF4A1 RNA dependent ATPase activity expressed in Escherichia coli BL21(DE3) using single stranded poly(U) RNA as substrate after 30 mins by ADP-Glo luminescence assay
Chain of Eukaryotic initiation factor 4A-I (P60842 whole entry): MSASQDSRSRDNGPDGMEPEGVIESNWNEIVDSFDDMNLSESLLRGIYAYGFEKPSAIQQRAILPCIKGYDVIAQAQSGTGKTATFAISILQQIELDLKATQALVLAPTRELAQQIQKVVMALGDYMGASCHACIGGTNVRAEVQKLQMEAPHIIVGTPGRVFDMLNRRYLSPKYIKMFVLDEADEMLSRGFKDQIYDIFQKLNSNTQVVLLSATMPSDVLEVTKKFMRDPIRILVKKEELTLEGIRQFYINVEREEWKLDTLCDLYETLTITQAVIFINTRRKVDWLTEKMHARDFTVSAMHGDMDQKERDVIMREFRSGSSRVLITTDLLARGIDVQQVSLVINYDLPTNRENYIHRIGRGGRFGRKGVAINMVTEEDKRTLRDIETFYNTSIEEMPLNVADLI

[6] = target: Eukaryotic initiation factor 4A-III (Homo sapiens, UniProt P38919); experiment: Inhibition of MLN51-induced full length recombinant human N-terminal His6/SUMO-tagged eIF4A3 RNA dependent ATPase activity expressed in Escherichia coli BL21(DE3) using single stranded poly(U) RNA as substrate after 30 mins by ADP-Glo luminescence assay
Chain of Eukaryotic initiation factor 4A-III (P38919 whole entry): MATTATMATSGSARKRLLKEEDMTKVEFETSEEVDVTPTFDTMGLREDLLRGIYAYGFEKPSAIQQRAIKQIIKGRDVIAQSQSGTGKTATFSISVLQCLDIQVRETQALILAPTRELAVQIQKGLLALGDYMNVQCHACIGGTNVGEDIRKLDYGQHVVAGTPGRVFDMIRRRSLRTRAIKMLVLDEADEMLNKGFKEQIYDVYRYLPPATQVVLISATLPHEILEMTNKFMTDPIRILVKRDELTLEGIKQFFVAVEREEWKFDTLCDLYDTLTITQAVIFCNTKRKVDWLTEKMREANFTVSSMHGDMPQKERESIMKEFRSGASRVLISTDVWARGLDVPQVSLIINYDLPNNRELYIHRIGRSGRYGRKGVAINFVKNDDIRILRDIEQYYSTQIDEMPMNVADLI

[7] = target: T2, ATP-dependent RNA helicase DHX29 (Homo sapiens, UniProt Q7Z478); experiment: Inhibition of full length recombinant human N-terminal His-FLAG-tagged DHX29 RNA dependent ATPase activity expressed in baculovirus infected Sf9 insect cells using single stranded poly(U) RNA as substrate after 30 mins by ADP-Glo luminescence assay
T2 sequence (Q7Z478 whole entry): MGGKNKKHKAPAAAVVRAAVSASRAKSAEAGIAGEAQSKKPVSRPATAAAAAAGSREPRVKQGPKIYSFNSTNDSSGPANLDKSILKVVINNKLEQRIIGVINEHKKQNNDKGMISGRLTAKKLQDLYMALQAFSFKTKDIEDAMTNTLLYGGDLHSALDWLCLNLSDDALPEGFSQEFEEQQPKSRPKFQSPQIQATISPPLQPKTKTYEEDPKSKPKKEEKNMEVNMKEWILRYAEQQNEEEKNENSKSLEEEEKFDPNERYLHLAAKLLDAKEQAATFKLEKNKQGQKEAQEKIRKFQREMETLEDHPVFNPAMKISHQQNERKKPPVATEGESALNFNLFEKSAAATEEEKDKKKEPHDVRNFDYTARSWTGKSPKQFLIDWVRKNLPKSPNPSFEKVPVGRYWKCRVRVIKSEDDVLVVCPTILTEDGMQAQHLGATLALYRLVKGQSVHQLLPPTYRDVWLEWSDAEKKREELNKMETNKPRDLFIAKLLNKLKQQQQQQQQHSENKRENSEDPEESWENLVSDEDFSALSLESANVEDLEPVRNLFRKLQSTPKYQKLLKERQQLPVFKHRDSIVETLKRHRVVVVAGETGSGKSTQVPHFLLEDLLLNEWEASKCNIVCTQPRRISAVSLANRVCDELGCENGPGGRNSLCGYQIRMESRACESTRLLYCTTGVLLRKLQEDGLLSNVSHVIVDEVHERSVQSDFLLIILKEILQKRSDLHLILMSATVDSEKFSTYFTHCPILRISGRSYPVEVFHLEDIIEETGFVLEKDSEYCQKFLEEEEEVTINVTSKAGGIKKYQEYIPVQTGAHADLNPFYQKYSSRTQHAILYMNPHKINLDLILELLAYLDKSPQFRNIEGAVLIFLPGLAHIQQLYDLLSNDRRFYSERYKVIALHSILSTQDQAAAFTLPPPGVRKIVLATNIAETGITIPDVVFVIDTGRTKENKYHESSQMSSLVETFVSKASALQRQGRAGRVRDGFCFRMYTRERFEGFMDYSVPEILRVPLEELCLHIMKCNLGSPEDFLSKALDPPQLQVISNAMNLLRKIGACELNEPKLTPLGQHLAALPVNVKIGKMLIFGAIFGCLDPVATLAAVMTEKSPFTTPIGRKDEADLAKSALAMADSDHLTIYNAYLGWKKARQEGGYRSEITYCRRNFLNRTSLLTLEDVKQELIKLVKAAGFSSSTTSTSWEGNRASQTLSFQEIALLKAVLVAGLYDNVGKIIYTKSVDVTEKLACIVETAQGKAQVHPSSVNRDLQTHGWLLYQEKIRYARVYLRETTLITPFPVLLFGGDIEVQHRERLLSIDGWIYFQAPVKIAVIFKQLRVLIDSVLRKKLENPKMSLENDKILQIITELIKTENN

[8] = target: T1, U5 small nuclear ribonucleoprotein 200 kDa helicase; experiment: Inhibition of full length recombinant human N-terminal His-tagged BRR2 helicase activity expressed in baculovirus infected Sf9 cells using 5'-[FITC]-UUCCCCUGCAUAAC-3'/5'-GUUAUGCAGGGGAACCAACGCAUAUCAGUGAGGAUU-3' RNA as substrate after 10 mins in presence of ATP by PAGE analysis

SMILES	IC50 [1]	inhibition [2]	solubility [3]	Papp [4]	IC50 [5]	IC50 [6]	IC50 [7]	IC50 [8]
CC(C)C[C@H]1C[C@@H](C)[C@]2(C(=O)Nc3ccc(F)cc32)N1C(=O)c1cn(Cc2ccccc2)cn1 (racemic)	0.024 µM	–	–	–	–	–	–	–
CC(C)C[C@@H]1C[C@H](C)[C@@]2(C(=O)Nc3ccc(F)cc32)N1C(=O)c1cn(Cc2ccccc2)cn1	> 100 µM	inactive	46 µg/mL (≈ 99.9 µM)	19.5 ×10⁻⁶ cm/s	> 100 µM	> 100 µM	–	–
CC(C)C[C@H]1C[C@@H](C)[C@]2(C(=O)Nc3ccc(F)cc32)N1C(=O)c1cn(C)cn1 (racemic)	0.042 µM	–	–	–	–	–	–	–
CC(C)C[C@H]1C[C@@H](C)[C@]2(C(=O)Nc3ccc(F)cc32)N1C(=O)c1cn(Cc2ccccc2)cn1	0.011 µM	–	45 µg/mL (≈ 97.7 µM)	18.2 ×10⁻⁶ cm/s	> 100 µM	> 100 µM	> 100 µM	0.35 µM
CC(C)C[C@@H]1C[C@H](C)[C@@]2(C(=O)Nc3ccc(F)cc32)N1C(=O)c1cn(C)cn1	84 µM	inactive	> 110 µg/mL	16.8 ×10⁻⁶ cm/s	> 100 µM	> 100 µM	–	–
CC(C)C[C@H]1C[C@@H](C)[C@]2(C(=O)Nc3ccc(F)cc32)N1C(=O)c1cn(C)cn1	0.021 µM	–	> 99 µg/mL	18.3 ×10⁻⁶ cm/s	> 100 µM	> 100 µM	> 100 µM	0.48 µM
